Experimental data taken from patent publication US20110060028A1, “COMBINATION THERAPY” (UNIVERSITY OF YORK, priority 2007, published 2011).
d = 2'-deoxy (DNA)

Columns and labels:
Type in all cases: cell-based, human
SIRT1 = experiment: Immunoblotting of total SIRT1, SIRT1 S27P and SIRT1 S47P
Procedure: (§1) Epithelial cancer cell lines RKO, LoVo, DLD-1, HT29, U2OS, SAOS-2, MCF7, HTB-126, HT-1080 and SiHa were obtained from ATCC. Isogenic colorectal carcinoma cell lines HCT116 p53+/+ and HCT116 p53−/− were a kind gift of Bert Vogelstein. Non-cancer cells were normal diploid fibroblasts (NDF) and ARPE-19 immortalised retinal epithelial cells (ATCC), and normal human embryonic keratinocytes (NHEK, Invitrogen). Cells were cultured according to the supplier's protocols. siRNA sequences, transfection protocols and target validations were as described (Ref. 27 and Methods). For drug treatments, cells were treated 48 hours post-plating with final concentration of 5-FU (375 OM) and uridine (425 OM) as indicated and harvested 24 h later. For combined transfection/drug treatment, drugs were applied 24 h post-transfection and cells harvested 24 h later. For time course analyses cells were harvested at indicated time points post-treatment.
(§2) Cells were prepared as described (Methods). For immunoblotting equivalent numbers of cells, or equivalent amounts of protein, were loaded in each lane. Antibodies were: Anti-SIRT1 (H-300, Santa Cruz), anti-phosphoserine27-SIRT1 (#2327, Cell Signaling), anti-phosphoserine47-SIRT1 (#2314, Cell Signaling), anti-actin (MAB1501, Chemicon), anti-p53 (00-1, Santa Cruz), anti-acetylated-p53-lysine382 (#2525, Cell Signaling), anti-JNK1 (F-3, Santa Cruz), anti-JNK2 (#4672, Cell Signaling). Visualisation of bound antibodies was by ECL, with quantitation by densitometry of signals within the linear range.
(§3) Cells for transfection and/or drug treatment were plated at a density of 6×10^4 (ARPE-19) or 1.4×10^5 (HCT116) per well in 6-well plates. For the experiment in FIG. 3a, ARPE-19 cells were plated at a density of 4×10^4 per well. Transfections were performed 24 hours post-plating in Opti-MEM (Gibco) using Oligofectamine (Invitrogen) according to the manufacturer's instructions. Chemically synthesized, HPLC-purified siRNAs were obtained from Qiagen or Dharmacon. SIRT1 siRNA sequence has been described^27. JNK1 siRNA sequences were: Sense 5′-CUCCACCACCAAAGAUCCC(dTdT)-3′, antisense 5′-GGGAUCUUUGGUGGUGGAG(dTdT)-3′. JNK2 siRNA sequences were: Sense 5′-GAGCUGGUGAAAGGUUGUG(dTdT)-3′, antisense 5′-CACAACCUUU CACCAGCUC(dTdT)-3′. Specificities of SIRT1 siRNA, JNK1 sIRNA and JNK2 siRNA have been validated previously¢ (Ahmed and Milner, in submission). Cells were harvested for analysis 48 h post-transfection, except where indicated otherwise. For drug treatment, drugs were applied by complete media replacement 48 h post-plating at final concentration 375 μM (5-FU) or 425 μM (uridine). Cells were harvested for analysis 24h following application of drugs, or at the indicated timepoints for time-course analysis. For combined transfection/drug experiments, drugs were applied approximately 20 hours post-transfection. Cells from combined transfection/drug experiments were harvested for analysis after 24 hours of drug exposure (˜48 hours post-transfection).
For preparation of total protein lysates, cell counts or protein assay was performed, with the method chosen consistent within each experiment. Cells were lysed in lysis buffer IPAMN (10 mM TRIS base pH 8.0, 140 mM NaCl, 2 mM CaCl2, 0.5% NP-40, 5 U ml^−1 micrococcal nuclease) for 3 minutes at room temperature followed by addition of 0.25× volumes of 6×SDS-PAGE sample buffer and brief heating to 90° C. Samples for protein assay were withdrawn before addition of 6×SDS-PAGE sample buffer, and assayed using BCA Protein Assay Kit (Pierce) according to the manufacturers instructions. Equivalent numbers of cells, or equivalent amounts of protein, were electrophoresed on 10% or 15% SDS-PAGE, electrobiotted to Protran membrane (Schleicher&Schuell) using a wet-blot transfer system, blocked for 1 hour at room temperature and probed with primary antibodies overnight at 4° C. […]

ARPE-19 cells = experiment: Cell viability / apoptosis (annexin-V staining, phase contrast); settings: 24 h drug exposure
Procedure: (§4) Phase contrast digital images were captured using an Axiovert 200M microscope (Zeiss). Apoptotic cells were identified by flow cytometry using annexin-V-Fluos (Roche) following the manufacturer's protocol.
as §3, with “Cells were harvested for analysis 24h following application of drugs, or at the indicated timepoints for time-course analysis. For combined transfection/drug experiments, drugs were applied approximately 20 hours post-transfection. Cells from combined transfection/drug experiments were harvested for analysis after 24 hours of drug exposure (˜48 hours post-transfection).” left out

p53 = experiment: Immunoblotting of p53 and p53 K382Ac
Procedure: as §1, §2
as §3, with “For combined transfection/drug experiments, drugs were applied approximately 20 hours post-transfection. Cells from combined transfection/drug experiments were harvested for analysis after 24 hours of drug exposure (˜48 hours post-transfection).” left out

SIRT1 mRNA = experiment: Quantitative RT-PCR of SIRT1 mRNA; settings: for SIRT1 mRNA estimated t1/2: following administration of 5-FU
Procedure: as §1
Cellular mRNAs were extracted for quantitative RT-PCR as previously described^27. Primers and thermal cycling conditions were as described^27 (Methods); quantifications were performed in triplicate.
as §3
Relative mRNA levels were quantitated by realtime RT-PCR. […] SIRT1 primers 5′-[…]-3′ and 5′-[…]-3′ were used in the thermal cycle: 50° C. for 30 minutes, 94° C. for 15 minutes, followed by 35 cycles of 94° C. for 30 seconds, 55° C. for 30 seconds, 72° C. for 30 seconds, then 75° C. for 15 seconds before the plate was read. JNK1 primers 5′-[…]-3′ and 5′-[…]-3′ were used in the thermal cycle: 50° C. for 30 minutes, 94° C. for 15 minutes, followed by 35 cycles of 94° C. for 30 seconds, 57° C. for 30 seconds, 72° C. for 30 seconds, then 75° C. for 15 seconds before the plate was read. JNK2 primers 5′-[…]-3′ and 5′-[…]-3′ were used in the thermal cycle: 50° C. for 30 minutes, 94° C. for 15 minutes, followed by 35 cycles of 94° C. for 30 seconds, 55° C. for 30 seconds, 72° C. for 30 seconds, then 75° C. for 15 seconds before the plate was read. All RT-PCR quantifications were performed in triplicate.

HCT116 p53+/+ cells = experiment: Apoptosis (annexin-V staining, phase contrast); settings: 24 h drug exposure
Procedure: as §4
as §3, with “Cells were harvested for analysis 24h following application of drugs, or at the indicated timepoints for time-course analysis. For combined transfection/drug experiments, drugs were applied approximately 20 hours post-transfection. Cells from combined transfection/drug experiments were harvested for analysis after 24 hours of drug exposure (˜48 hours post-transfection).” left out

laminA/C and GAPDH mRNAs = experiment: Quantitative RT-PCR of laminA/C and GAPDH mRNAs; settings: 5-FU for 24 h
Procedure: Epithelial cancer cell lines RKO, LoVo, DLD-1, HT29, U2OS, SAOS-2, MCF7, HTB-126, HT-1080 and SiHa were obtained from ATCC. Isogenic colorectal carcinoma cell lines HCT116 p53+/+ and HCT116 p53−/− were a kind gift of Bert Vogelstein. Non-cancer cells were normal diploid fibroblasts (NDF) and ARPE-19 immortalised retinal epithelial cells (ATCC), and normal human embryonic keratinocytes (NHEK, Invitrogen). Cells were cultured according to the supplier's protocols. siRNA sequences, transfection protocols and target validations were as described (Ref. 27 and Methods). […]
Cellular mRNAs were extracted for quantitative RT-PCR as previously described^27. Primers and thermal cycling conditions were as described^27 (Methods); quantifications were performed in triplicate. […]
Relative mRNA levels were quantitated by realtime RT-PCR. […] SIRT1 primers 5′-[…]-3′ and 5′-[…]-3′ were used in the thermal cycle: 50° C. for 30 minutes, 94° C. for 15 minutes, followed by 35 cycles of 94° C. for 30 seconds, 55° C. for 30 seconds, 72° C. for 30 seconds, then 75° C. for 15 seconds before the plate was read. JNK1 primers 5′-[…]-3′ and 5′-[…]-3′ were used in the thermal cycle: 50° C. for 30 minutes, 94° C. for 15 minutes, followed by 35 cycles of 94° C. for 30 seconds, 57° C. for 30 seconds, 72° C. for 30 seconds, then 75° C. for 15 seconds before the plate was read. […]

exogenous SIRT1 protein = experiment: Exogenous SIRT1 expression after RNAi and cycloheximide time course, immunoblotting
From the text: FIG. 13 JNK-dependent phosphorylation at S27 stabilises exogenous SIRT1 protein. a. Schematic of experimental protocol for RNA′ followed by transfection with exogenous SIRT1 expression vector (see text). b. Exogenous expression of SIRT1 in intact HCT116 cells (lane 2), JNK2-depleted cells (lane 3) and JNK1-depleted cells (lane 4) detected by immunoblotting. Lane 1 =intact, non-transfected cells. Note that in both intact cells and JNK1-depleted cells the exogenous SIRT1 is phosphorylated on S27 and S47, whereas in JNK2-depleted cells S27P levels reflect endogenous SIRT1 (lanes 1 and 3, asterix), c, d. Time course analyses of SIRT1 protein levels and SIRT1 S27P following addition of cycloheximide in intact (panel c) and JNK2-depleted (panel d) HCT116 cells as indicated. e. SIRT1 protein levels at indicated times post treatment with cycloheximide (CHX) in intact cells (solid circles, solid line) and in JNK-depleted cells (open circles, dashed line).
To further explore the relationship between SIRT1 and JNK2 we expressed exogenous . SIRT1 in HCT116 p53+/+ cells in which JNK2 had been depleted by RNAI (Methods and FIG. 13a). When expressed in intact cells exogenous SIRT1 protein was phosphorylated at both S27 and S47 (FIG. 13b, lane 2). […] In addition total exogenous SIRT1 protein levels were reduced in JNK2-depleted cells (FIG. 13b, lane 3 cp. lane 2, SIRT1), consistent with reduced SIRT1 protein stability in the absence of S27 phosphorylation. […] S47 kinase/phosphatase activity. […] Thus JNK2, but not JNK1, is required for S27 phosphorylation and associated accumulation of SIRT1 protein.
Reduced accumulation of SIRT1 protein under these conditions is consistent with the premise that JNK2-dependent phosphorylation of SIRT1 at S27P stabilises the SIRT1 protein. This was confirmed by time course studies in which exogenous SIRT1 protein levels were monitored following inhibition of protein synthesis by cycloheximide. […] In intact cells exogenous SIRT1 protein was phosphorylated at S27 (FIG. 13c) and was also stable over 9 hr (FIGS. 13c and 13e). However, in JNK2-depleted cells exogenous SIRT1 protein lacked S27P (FIG. 13d) and protein levels declined with a half life of approximately 2 hrs (FIGS. 13d and 13e). We conclude that JNK2 is required, directly or indirectly, for phosphorylation of SIRT1 at S27 and that this is linked with stabilisation of SIRT1 protein in HCT116 cancer cells.

Compound: O=c1[nH]cc(F)c(=O)[nH]1 [5-FU, 5-fluorouracil]
- total SIRT1 protein levels (SIRT1; ARPE-19 cells): increased 6 h after 5-FU treatment and subsequently declined by 24 h
- SIRT1 S27 phosphorylation (SIRT1; HCT116 p53+/+ cells): lost
- total SIRT1 protein levels (SIRT1; HCT116 p53+/+ cells): stable over 12 h, but declined by 24 h post-treatment
- SIRT1 S27 phosphorylation (SIRT1; HCT116 p53−/− cells): retained
- total SIRT1 protein levels (SIRT1; HCT116 p53−/− cells): remains constant up to at least 48 h
- cell viability (ARPE-19 cells): remained viable
- acetylation of p53 (p53; ARPE-19 cells): undetectable
- p53 response (p53; ARPE-19 cells): attenuated
- p53 K382 acetylation (p53; HCT116 p53+/+ cells): induction
- p53 response (p53; HCT116 p53+/+ cells): sustained
- depletion of SIRT1 mRNA (SIRT1 mRNA; 5-FU (375 μM) for 24 h, ARPE-19 and HCT116 cells (FIG. 2a)): 80%
- SIRT1 mRNA estimated t1/2 (SIRT1 mRNA; ARPE-19 cells): ~4 h
- SIRT1 mRNA estimated t1/2 (SIRT1 mRNA; HCT116 cells): < 2 h
- apoptosis (HCT116 p53+/+ cells): apoptosis
- lamin A/C and GAPDH mRNA levels (laminA/C and GAPDH mRNAs): relatively unaffected

Compound: JNK2 siRNA: siRNA: sense 5′-GAGCUGGUGAAAGGUUGUG(dTdT)-3′, antisense 5′-CACAACCUUU CACCAGCUC(dTdT)-3′ (antisense CACAACCUUUCACCAGCUC; RNA, 3' dTdT, backbone not given here)
- total SIRT1 protein levels (SIRT1; ARPE-19 cells): reduced levels of SIRT1 protein
- SIRT1 S27 phosphorylation (SIRT1; HCT116 p53+/+ cells): loss of SIRT1 S27P
- SIRT1 S47P (SIRT1; HCT116 p53+/+ cells): barely detectable
- total SIRT1 protein levels (SIRT1; HCT116 p53+/+ cells): reduced SIRT1 protein levels
- SIRT1 protein levels or phosphorylation status (SIRT1; HCT116 p53−/− cells): little effect
- half life of exogenous SIRT1 protein (exogenous SIRT1 protein; HCT116 cells, following addition of cycloheximide): approximately 2 hrs
- S27 phosphorylation of exogenous SIRT1 protein (exogenous SIRT1 protein; HCT116 p53+/+ cells): non-phosphorylated at S27
- exogenous SIRT1 S47P (exogenous SIRT1 protein; HCT116 p53+/+ cells): clearly detectable
- total exogenous SIRT1 protein levels (exogenous SIRT1 protein; HCT116 p53+/+ cells): reduced
- SIRT1 mRNA levels (SIRT1 mRNA; ARPE-19 cells, 24-96 h post-transfection): remained constant
- SIRT1 mRNA levels (SIRT1 mRNA; HCT116 p53+/+ cells): absence of any reduction

Compound: JNK1 siRNA: siRNA: sense 5′-CUCCACCACCAAAGAUCCC(dTdT)-3′, antisense 5′-GGGAUCUUUGGUGGUGGAG(dTdT)-3′ (RNA, 3' dTdT, backbone not given here)
- SIRT1 protein levels, S27 or S47 phosphorylation (SIRT1; ARPE-19, HCT116 p53+/+ or HCT116 p53−/− cells): no effect
- total SIRT1 protein levels (SIRT1; ARPE-19 cells): no effect
- exogenous expression of SIRT1 and its phosphorylation (exogenous SIRT1 protein; HCT116 p53+/+ cells): indistinguishable from the intact controls
